What was measured:
[1] = Highest frequency of moderate liver toxicity observed during clinical trials, expressed as a percentage. [column '% BIOL' in source]; details: human
[2] = Highest frequency of acute liver toxicity observed during clinical trials, expressed as a percentage. [column '% AIGUE' in source]; details: human
[3] = Presence of at least one case with successful reintroduction. [column 'REINT' in source]; details: human
[4] = Times to onset, minimal and maximal, observed in the indexed observations. [column 'DELAI' in source]; details: human
[5] = Proposed mechanism(s) of liver damage. [column 'MEC' in source]; details: human
[6] = human, serum
[7] = human, serum; remark: listed apart in the source
[8] = human
[9] = human; remark: listed apart in the source
[10] = human; remark: listed apart in the source
[11] = human, serum, 4383 h
[12] = human; remark: listed apart in the source
[13] = human; remark: listed apart in the source
[14] = human; remark: listed apart in the source
[15] = human; remark: listed apart in the source
[16] = human; remark: listed apart in the source
[17] = human; remark: listed apart in the source
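Wherever Hepatotoxicity (association with vascular disease) is given: count of indexed literature references reporting vascular liver injury in humans, e.g. peliosis hepatitis, hepatic veno-occlusive disease or Budd-Chiari syndrome.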
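Wherever Hepatotoxicity (benign tumour) is given: value is a count of indexed literature references citing a benign tumour confirmed by histopathology.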
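Wherever Hepatotoxicity (choleostasis) is given: human cholestatic liver injury, shown by histopathology or by peak ALT or AST elevation over alkaline phosphatase ratio below 2, value counts indexed literature reports.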
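Wherever Hepatotoxicity (chronic liver disease) is given: chronic liver injury confirmed by histopathology or persistently raised serum aminotransferase activity beyond 6 months, value given as the count of indexed literature references.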
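Wherever Hepatotoxicity (cirrhosis) is given: value is a count of indexed literature references reporting cirrhosis confirmed by histopathology.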
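Wherever Hepatotoxicity (cytolytic) is given: human cytolytic liver injury, shown by histopathology or by a ratio above 5 of peak ALT or AST elevation to alkaline phosphatase elevation, value counts indexed references.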
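Wherever Hepatotoxicity (granulomatous hepatitis) is given: value is a count of indexed literature references reporting granulomatous liver disease confirmed by histopathology.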
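Wherever Hepatotoxicity (malignant tumour) is given: malignant tumour confirmed by histopathology, value gives the count of indexed literature references reporting it.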
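Wherever Hepatotoxicity (severe hepatitis) is given: human clinical data: severe hepatitis, meaning potentially life-threatening liver failure or clinically observed cases, the value counts how many indexed literature references report it.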
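Wherever Hepatotoxicity (steatosis) is given: steatosis confirmed by histopathology, value is the count of indexed references.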

Structure (SMILES) | Hepatotoxicity (moderate) [1] | Hepatotoxicity (acute) [2] | Hepatotoxicity (successful reintroduction) [3] | Hepatotoxicity (time to onset) [4] | Hepatotoxicity (mechanism) [5] | Hepatotoxicity (moderate) [6] | Hepatotoxicity (acute) [7] | Hepatotoxicity (cytolytic) [8] | Hepatotoxicity (choleostasis) [9] | Hepatotoxicity (severe hepatitis) [10] | Hepatotoxicity (chronic liver disease) [11] | Hepatotoxicity (cirrhosis) [12] | Hepatotoxicity (granulomatous hepatitis) [13] | Hepatotoxicity (association with vascular disease) [14] | Hepatotoxicity (steatosis) [15] | Hepatotoxicity (malignant tumour) [16] | Hepatotoxicity (benign tumour) [17] | Hepatotoxicity (moderate) ([1]; Liver) | Hepatotoxicity (acute) ([2]; Liver) | Hepatotoxicity (severe hepatitis) ([10]; Liver) | other results
CCc1nc(N)nc(N)c1-c1ccc(Cl)cc1.COc1ncnc(NS(=O)(=O)c2ccc(N)cc2)c1OC | 22.5% | 23.5% | yes | 1 day - 3 months | Allergic | 11 | 14 | 5 | 4 | 3 | 0 | 0 | 2 | 0 | 0 | 0 | 0 |  |  |  | 
OC(Cn1cncn1)(Cn1cncn1)c1ccc(F)cc1F [FLUCONAZOLE] |  |  | yes | 2 days - 10 months |  | 84 | 25 |  |  |  | 0 | 0 |  | 0 | 1 | 0 | 0 | 83.3% | 6.3% | 7 | Hepatotoxicity (mechanism) ([5]; Liver): Dose-dependant; Hepatotoxicity (cytolytic) ([8]; Liver): 15; Hepatotoxicity (choleostasis) ([9]; Liver): 13; Hepatotoxicity (granulomatous hepatitis) ([13]; Liver): 1
Nc1nc(O)c2ncn(COC(CO)CO)c2n1 [GANCICLOVIR] | 55% | 0% | yes | 1 week - 26 days | Dose-dependant | 9 | 1 | 1 | 1 | 0 | 0 | 0 | 0 | 0 | 0 | 0 | 0 |  |  |  | 
CCN(CC)Cc1cc(Nc2ccnc3cc(Cl)ccc23)ccc1O.Cl |  |  | yes | 1 week - 1 year |  | 2 | 18 |  |  |  | 0 | 1 |  | 0 | 0 | 0 | 0 | 0% | 6.7% | 8 | Hepatotoxicity (mechanism) ([5]; Liver): Allergic, Dose-dependant, Reactive metabolite; Hepatotoxicity (cytolytic) ([8]; Liver): 11; Hepatotoxicity (choleostasis) ([9]; Liver): 4; Hepatotoxicity (granulomatous hepatitis) ([13]; Liver): 0
CC[C@@]1(O)C[C@H](O[C@H]2C[C@H](N(C)C)[C@H](O[C@H]3C[C@H](O)[C@H](O[C@H]4CCC(=O)[C@H](C)O4)[C@H](C)O3)[C@H](C)O2)c2c(cc3c(c2O)C(=O)c2c(O)cccc2C3=O)[C@H]1C(=O)OC [ACLARUBICIN] | 26.7% | 0% | yes |  | Dose-dependant | 8 | 0 | 0 | 0 | 1 | 0 | 0 | 0 | 0 | 0 | 0 | 0 |  |  |  | 
Nc1nc2ccc(OC(F)(F)F)cc2s1 [RILUZOLE] | 17% | 3.8% | yes | 15 days - 9 months | Dose-dependant | 5 | 5 | 5 | 0 | 0 | 0 | 0 | 0 |  | 1 | 0 | 0 |  |  |  | 
CCCC(=O)Nc1ccc(OCC(O)CNC(C)C)c(C(C)=O)c1 (configuration not stated) [ACEBUTOLOL] |  |  | yes | 1 day - 1 month | Allergic | 0 |  | 1 | 1 |  | 0 | 0 | 0 | 0 | 0 | 0 | 0 | 0% | 0% | 0 | 
Clc1ccc2nsnc2c1NC1=NCCN1 [TIZANIDINE] |  |  | yes | 6 days - 3.5 months |  | 2 |  |  |  |  | 0 | 0 |  | 0 | 1 | 0 | 0 | 0% |  | 2 | Hepatotoxicity (mechanism) ([5]; Liver): Allergic; Hepatotoxicity (cytolytic) ([8]; Liver): 1; Hepatotoxicity (choleostasis) ([9]; Liver): 0; Hepatotoxicity (granulomatous hepatitis) ([13]; Liver): 0
COC(=O)C1=C(C)NC(C)=C(C(=O)OC)C1c1ccccc1[N+](=O)[O-] [NIFEDIPINE] | 12% | 4% | yes | 2 days - 6 years | Allergic | 6 |  | 5 | 7 | 2 | 0 | 0 | 0 |  | 3 | 0 | 0 |  |  |  | 
CC(=O)S[C@@H]1CC2=CC(=O)CC[C@]2(C)[C@H]2CC[C@@]3(C)[C@@H](CC[C@@]34CCC(=O)O4)[C@H]12 [SPIRONOLACTONE] | 0% | 0% | yes | 6 weeks - 2 months |  | 0 | 3 | 3 | 3 | 0 | 0 | 0 | 0 | 0 | 0 | 0 | 0 |  |  |  | 

Reference: ChEMBL document CHEMBL3137667, “[Drug-induced liver injury; fourteenth updated edition of the bibliographic database of liver injuries and related drugs]” (Gastroenterol Clin Biol, 2004)
